Test results taken from patent publication US9656971B2, “COMT inhibitors” (Hoffmann-La Roche Inc., priority 2012, dated 2017).
Counter-ions that a name gives are not always drawn.

Biological target: T1, Rec. human COMT (Homo sapiens, UniProt P21964)
T1 sequence (P21964 1-271): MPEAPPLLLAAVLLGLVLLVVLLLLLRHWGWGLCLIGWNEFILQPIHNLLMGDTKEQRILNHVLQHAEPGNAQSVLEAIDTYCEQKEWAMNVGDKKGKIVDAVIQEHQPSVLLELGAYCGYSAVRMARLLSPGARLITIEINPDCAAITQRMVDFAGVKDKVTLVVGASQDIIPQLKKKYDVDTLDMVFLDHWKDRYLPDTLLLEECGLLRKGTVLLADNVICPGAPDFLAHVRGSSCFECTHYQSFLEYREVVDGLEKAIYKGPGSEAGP
Assay: COMT-Fluorescence Assay
Assay type: biochemical
Settings: COMT-fluorescence assay, rec. human COMT 25 nM, 4-Nitrocatechol-Alexa488 200 nM, SAM 500 nM; read-out: IC50
Experimental: This intramolecular interaction is disturbed if the 4-Nitrocatechol is methylated. […] This increase of fluorescence intensity can be followed in a kinetic measurement. The slope in the linear range of the kinetic is calculated. An inhibitor compound decreases the slope.
Signal [rfu/min]=(rfu(end-point)−rfu(startpoint))/incubation_time_#2

First: COCc1ccc(C(=O)N2CCN(C)CC2)cc1-c1cc(O)c2nc[nH]c(=O)c2c1 [Example 233, 8-Hydroxy-6-[2-methoxymethyl-5-(4-methyl-piperazine-1-carbonyl)-phenyl]-3H-quinazolin-4-one; compound with formic acid]
Second: COCc1c(C(=O)N2CCN(C)CC2)cccc1-c1cc(O)c2nc[nH]c(=O)c2c1 [Example 235, 8-Hydroxy-6-[2-methoxymethyl-3-(4-methyl-piperazine-1-carbonyl)-phenyl]-3H-quinazolin-4-one]
The IC50 of the first is 39-fold higher: 1170 nM for the first, 30 nM for the second.

First: CN(C)CCc1ccccc1-c1cc(O)c2nc[nH]c(=O)c2c1 [Example 234, 6-(2-(2-(Dimethylamino)ethyl)phenyl)-8-hydroxyquinazolin-4(3H)-one]
Second: CN(C)CCCc1ccccc1-c1cc(O)c2nc[nH]c(=O)c2c1 [Example 243, 6-(2-(3-(Dimethylamino)propyl)phenyl)-8-hydroxyquinazolin-4(3H)-one]
The IC50 of the first is 7.5-fold higher: 980 nM for the first, 130 nM for the second. The second is the more potent here.

Compared with `O=c1[nH]cnc2c(O)cc(-c3ccccc3COCCN3CCOCC3)cc12` [Example 236, 8-Hydroxy-6-[2-(2-morpholin-4-yl-ethoxymethyl)-phenyl]-3H-quinazolin-4-one], `O=c1[nH]cnc2c(O)cc(-c3ccccc3COCCN3CCCC3)cc12` [Example 238, 8-Hydroxy-6-(2-((2-(pyrrolidin-1-yl)ethoxy)methyl)phenyl)quinazolin-4(3H)-one] is 1.5-fold higher in IC50: 20 nM for the first, 30 nM for the second.

Going from `O=c1[nH]cnc2c(O)cc(-c3ccccc3COCCN3CCCC3)cc12` [Example 239, 8-Hydroxy-6-[2-(2-pyrrolidin-1-yl-ethoxymethyl)-phenyl]-3H-quinazolin-4-one; compound with trifluoro-acetic acid] to `O=c1[nH]cnc2c(O)cc(-c3ccccc3CCCN3CCCC3)cc12` [Example 242, 8-Hydroxy-6-(2-(3-(pyrrolidin-1-yl)propyl)phenyl)quinazolin-4(3H)-one], the IC50 rises from 50 nM to 220 nM (4.4-fold).

`CN1CCN(CCOCc2ccccc2-c2cc(O)c3nc[nH]c(=O)c3c2)CC1` [Example 240, 8-Hydroxy-6-(2-((2-(4-methylpiperazin-1-yl)ethoxy)methyl)phenyl)quinazolin-4(3H)-one] and `CN1CCC(CCOCc2ccccc2-c2cc(O)c3nc[nH]c(=O)c3c2)CC1` [Example 256, 8-Hydroxy-6-(2-((2-(1-methylpiperidin-4-yl)ethoxy)methyl)phenyl)quinazolin-4(3H)-one] are within 1.5-fold of each other in IC50: 30 nM for the first, 36 nM for the second.

First: CN(C)CCOCc1ccccc1-c1cc(O)c2nc[nH]c(=O)c2c1 [Example 241, 6-(2-((2-(Dimethylamino)ethoxy)methyl)phenyl)-8-hydroxyquinazolin-4(3H)-one]
Second: CN(C)S(=O)(=O)c1ccccc1-c1cc(O)c2nc[nH]c(=O)c2c1 [Example 250, 2-(8-Hydroxy-4-oxo-3,4-dihydro-quinazolin-6-yl)-N,N-dimethyl-benzenesulfonamide]
The IC50 of the first is 38-fold lower: 30 nM for the first, 1140 nM for the second. The first is the more potent here.

Going from `O=c1[nH]cnc2c(O)c(F)c(Br)c(-c3ccc(F)cc3)c12` [Example 244, 6-Bromo-7-fluoro-5-(4-fluoro-phenyl)-8-hydroxy-3H-quinazolin-4-one] to `Nc1c(-c2ccc(F)cc2)cc(O)c2nc[nH]c(=O)c12` [Example 253, 5-Amino-6-(4-fluorophenyl)-8-hydroxyquinazolin-4(3H)-one hydrobromide], the IC50 falls from 150 nM to 100 nM (1.5-fold).

Going from `O=c1[nH]cnc2c(O)c(Cl)c(-c3ccc(F)cc3)cc12` [Example 245, 7-Chloro-6-(4-fluorophenyl)-8-hydroxyquinazolin-4(3H)-one] to `O=c1[nH]cnc2c(O)cc(-c3ccc(F)cc3)c([N+](=O)[O-])c12` [Example 252, 6-(4-Fluoro-phenyl)-8-hydroxy-5-nitro-3H-quinazolin-4-one], the IC50 falls from 730 nM to 30 nM (24-fold). The second is the more potent here.

Going from `O=c1[nH]cnc2c(O)c(Cl)c(Br)cc12` [Example 246, 6-Bromo-7-chloro-8-hydroxyquinazolin-4(3H)-one] to `O=c1[nH]cnc2c(O)cc(-c3ccccc3CO)c(Cl)c12` [Example 255, 5-Chloro-8-hydroxy-6-(2-hydroxymethyl-phenyl)-3H-quinazolin-4-one], the IC50 falls from 1590 nM to 120 nM (13-fold).

Compared with `O=c1[nH]cnc2c(O)cc(-c3ccccc3CCCCN3CCCC3)cc12` [Example 248, 8-Hydroxy-6-(2-(4-(pyrrolidin-1-yl)butyl)phenyl)quinazolin-4(3H)-one], `O=c1[nH]cnc2c(O)cc(-c3ccccc3S(=O)(=O)N3CCCCC3)cc12` [Example 251, 8-Hydroxy-6-[2-(piperidine-1-sulfonyl)-phenyl]-3H-quinazolin-4-one] is 7.4-fold higher in IC50: 100 nM for the first, 740 nM for the second. The first is the more potent here.

Compared with `CCCS(=O)(=O)c1ccccc1-c1cc(O)c2nc[nH]c(=O)c2c1` [Example 249, 8-Hydroxy-6-(2-(propylsulfonyl)phenyl)quinazolin-4(3H)-one], `O=C(Nc1c(-c2ccc(F)cc2)cc(O)c2nc[nH]c(=O)c12)c1ccccc1` [Example 254, N-(6-(4-Fluorophenyl)-8-hydroxy-4-oxo-3,4-dihydroquinazolin-5-yl)benzamide] is 2.3-fold lower in IC50: 3230 nM for the first, 1400 nM for the second.

Same assay, conditions: IC50, COMT-fluorescence assay, rec. human COMT 25 nM, 4-Nitrocatechol-Alexa488 200 nM, SAM 500 nM

Compared with `CNCCc1ccccc1-c1cc(O)c2nc[nH]c(=O)c2c1` [Example 232, 8-Hydroxy-6-(2-(2-(methylamino)ethyl)phenyl)quinazolin-4(3H)-one], `CN(C)CCc1cccc(-c2cc(O)c3nc[nH]c(=O)c3c2)c1` [Example 247, 6-(3-(2-(Dimethylamino)ethyl)phenyl)-8-hydroxyquinazolin-4(3H)-one] is 6.2-fold lower in IC50: 310 nM for the first, 50 nM for the second.

System: not given
Assay: not given
Settings: in vivo; cited from earlier work

For `Cc1ccc(C(=O)c2cc(O)c(O)c([N+](=O)[O-])c2)cc1` [Tolcapone, tolcapone], the brain/plasma ratio is given as roughly 0.01.

System: rat anhedonia model
Assay: not given
Settings: cited from earlier work

For `Cc1ccc(C(=O)c2cc(O)c(O)c([N+](=O)[O-])c2)cc1` [Tolcapone, tolcapone], the anti-depressant activity is listed as “anti-depressant activity”.

System: patients with major depressive disorder (MDD)
Assay: not given
Settings: open clinical trial, 21 patients with MDD, 8 weeks, 400 mg b.i.d.; cited from earlier work

For `Cc1ccc(C(=O)c2cc(O)c(O)c([N+](=O)[O-])c2)cc1` [Tolcapone, tolcapone], the anti-depressant activity is given as “anti-depressant activity”.
